# From patent publication US10376558B2, “Method and compositions for synchronizing time of insemination in gilts” (UNITED-AH II, LLC, priority 2012, dated 2019)
# Assays:
# gilts [1] = assay: Example 1: ovulation monitoring by transrectal ultrasonography after triptorelin gel at 96, 120 or 144 h after last MATRIX feeding; format: in vivo, swine; details: raw average, PTK 1-07 (rep 3); for % of Sows Ovulating: 200 mcg T at 120 h
# Experimental: All gilts were individually fed MATRIX® as a top-dress for 14 days at the recommended rate of 15 mg/gilt/day. Gilts were withdrawn from MATRIX® feeding (last top feed in the morning on Day 0) and allotted to treatments. Controls were treated with a 1.2% methylcellulose gel formulation without triptorelin at 96 hours following MATRIX® withdrawal (last top-dress). The remaining gilts received 200 mcg triptorelin, as the acetate, in a 1.2% methylcellulose gel formulation intravaginally at various times after MATRIX® withdrawal. The four treatments were: 1) vehicle gel (VG) treatment at 96 hours after MATRIX® withdrawal, 2) triptorelin gel (TG) treatment at 96 hours after MATRIX® withdrawal, 3) TG treatment at 120 hours after MATRIX® withdrawal and 4) TG treatment at 144 hours after MATRIX® withdrawal. All gilts were monitored for their estrous and ovulatory status as described below. Gilts included in replicate 1 were selected from terminal line commercial production gilts located in grow/finish barns. Sexual maturity, as indicated by one or more estrous periods, was not verified prior to the start of MATRIX® feeding. Gilts included in replicate 2 were selected from a maternal line gilt population. Sexual maturity was verified by at least one estrous period verified and recorded prior to starting MATRIX® feeding.
# The ovulatory status of all gilts was monitored by transrectal ultrasonography. For replicate one, ovulation was monitored two times on Day 5, then three times a day from Day 6 to Day 8. For replicate two, ovulation was monitored three times a day from Day 5 to Day 8. An Aloka 500 ultrasound machine with a 7.5 MHz linear array transducer attached to a fixed-angle PVC stabilizing rod to facilitate insertion into the rectum was used for this purpose. The transducer and PVC rod were coated with a gynecological lubricant and gently inserted into the rectum until the ovaries were visualized, one at a time. The diameters of the three largest follicles were recorded (to the nearest 0.1 mm) at each scanning. A gilt was declared to have ovulated when the number of large follicles (≥6.5 mm) fell to less than 3.
# (§1) A single 2 mL dose of triptorelin gel or vehicle gel was deposited within approximately 1-2 cm posterior to the cervix with a catheter similar to those used for artificial insemination. The dose was delivered using a standard multi-dose applicator attached to the catheter. A new disposable sheath, which surrounds the catheter, was used for each gilt.
# Data were analyzed using the Mixed Models procedures of SAS. Models included main effects of time of treatment following the last feeding of MATRIX®, replicate, and treatment by replicate interaction. Differences between treatments were tested on least squares means estimates using the T test at P<0.05. Data for analysis were tested for assumptions of data normality.
# gilts [2] = assay: Example 5: ovulation monitoring by transrectal ultrasonography after 100, 200 or 400 mcg triptorelin gel at 120 h post-MATRIX; format: in vivo, swine; details: for Percentage ovulated by 48 hours: after treatment; for Time at which ovulation detected: relative to time of triptorelin gel treatment, Least Squares Mean ± SE; for % of Sows Ovulating / Interval from MATRIX Withdrawal to Ovulation: raw average, PTK 2-07
# Experimental: All gilts were individually fed MATRIX® as a top-dress for 14 or 15 days at the recommended rate of 15 mg/gilt/day. Gilts were withdrawn from MATRIX® feeding (last top-dress in the morning on Day 0) and allocated to each of the following treatments. Controls were vehicle gel treated (vehicle gel without triptorelin) at 120 (+/−2) hours following MATRIX® withdrawal (last top dress). The other gilts were given 100, 200 or 400 mcg triptorelin as the acetate in a methylcellulose gel formulation 120 (+/−2) hours following MATRIX® withdrawal. The four treatments were:
# 2. TG 100: 100 mcg (2 mL 50 mcg/mL) triptorelin gel at 120 (+/−2) hours after MATRIX® withdrawal.
# 3. TG 200: 200 mcg (2 mL 100 mcg/mL) triptorelin gel at 120 (+/−2) hours after MATRIX® withdrawal.
# 4. TG 400: 400 mcg (2 mL 200 mcg/mL) triptorelin gel at 120 (+/−2) hours after MATRIX® withdrawal.
# Ovulation was monitored twice on Day 5 (8 hours and 16 hours post-treatment) and every 8 hours on Day 6 and Day 7 or until ovulation was confirmed or 176 hours following last MATRIX® feeding. The ovulatory status of all gilts was monitored by transrectal ultrasonography. An Aloka 500 ultrasound machine is used for this purpose, with a 7.5 MHz linear array transducer attached to a fixed-angle PVC stabilizing rod to facilitate insertion into the rectum. The transducer and PVC rod are coated with a gynecological lubricant and gently inserted into the rectum until the ovaries can be visualized, one at a time. The diameters of the three largest follicles were recorded (to the nearest 0.1 mm) at each scanning. A gilt was declared to have ovulated when the number of large follicles (≥6.5 mm) fell to less than 3.
# as §1
# [3] = 200 mcg T at 120 h after MATRIX withdrawal
# [4] = 100 mcg T (n = 6 catheterized gilts)
# [5] = 200 mcg T (n = 7 catheterized gilts)
structure (smiles),measurement,setting,value
"CC(C)C[C@H](NC(=O)[C@@H](Cc1c[nH]c2ccccc12)NC(=O)[C@H](Cc1ccc(O)cc1)NC(=O)[C@H](CO)NC(=O)[C@H](Cc1c[nH]c2ccccc12)NC(=O)[C@H](Cc1c[nH]cn1)NC(=O)[C@@H]1CCC(=O)N1)C(=O)N[C@@H](CCCNC(=N)N)C(=O)N1CCC[C@H]1C(=O)NCC(N)=O [T, pGlu-His-Trp-Ser-Tyr-D-Trp-Leu-Arg-Pro-Gly-NH2]",% of Sows Ovulating,"gilts [1]; 128 h post-MATRIX, 8 h post-T",0.0%
same,% of Sows Ovulating,"gilts [1]; 136 h post-MATRIX, 16 h post-T",10.0%
same,% of Sows Ovulating,"gilts [1]; 144 h post-MATRIX, 24 h post-T",30.0%
same,% of Sows Ovulating,"gilts [1]; 152 h post-MATRIX, 32 h post-T",70.0%
same,% of Sows Ovulating,"gilts [1]; 160 h post-MATRIX, 40 h post-T",80.0%
same,% of Sows Ovulating,"gilts [1]; 168 h post-MATRIX, 48 h post-T",90.0%
same,% of Sows Ovulating,"gilts [1]; 176 h post-MATRIX, 56 h post-T",100.0%
same,Interval from MATRIX Withdrawal to Ovulation,gilts [1]; [3],153.6
same,Percentage ovulated by 48 hours,gilts [2]; [4],100%
same,Time at which ovulation detected,gilts [2]; [4],40 ± 10 h
same,Percentage ovulated by 48 hours,gilts [2]; [5],100%
same,Time at which ovulation detected,gilts [2]; [5],34 ± 9 h
same,% of Sows Ovulating,"gilts [2]; 100 mcg T at 120 h, 128 h post-MATRIX, 8 h post-T",0.0%
same,% of Sows Ovulating,"gilts [2]; 100 mcg T at 120 h, 136 h post-MATRIX, 16 h post-T",5.0%
same,% of Sows Ovulating,"gilts [2]; 100 mcg T at 120 h, 144 h post-MATRIX, 24 h post-T",20.0%
same,% of Sows Ovulating,"gilts [2]; 100 mcg T at 120 h, 152 h post-MATRIX, 32 h post-T",30.0%
same,% of Sows Ovulating,"gilts [2]; 100 mcg T at 120 h, 160 h post-MATRIX, 40 h post-T",60.0%
same,% of Sows Ovulating,"gilts [2]; 100 mcg T at 120 h, 168 h post-MATRIX, 48 h post-T",95.0%
same,% of Sows Ovulating,"gilts [2]; 100 mcg T at 120 h, 176 h post-MATRIX, 56 h post-T",100.0%
same,Interval from MATRIX Withdrawal to Ovulation,gilts [2]; 100 mcg T at 120 h after MATRIX withdrawal,159.2
same,% of Sows Ovulating,"gilts [2]; 200 mcg T at 120 h, 128 h post-MATRIX, 8 h post-T",0.0%
same,% of Sows Ovulating,"gilts [2]; 200 mcg T at 120 h, 136 h post-MATRIX, 16 h post-T",0.0%
same,% of Sows Ovulating,"gilts [2]; 200 mcg T at 120 h, 144 h post-MATRIX, 24 h post-T",23.8%
same,% of Sows Ovulating,"gilts [2]; 200 mcg T at 120 h, 152 h post-MATRIX, 32 h post-T",33.3%
same,% of Sows Ovulating,"gilts [2]; 200 mcg T at 120 h, 160 h post-MATRIX, 40 h post-T",52.4%
same,% of Sows Ovulating,"gilts [2]; 200 mcg T at 120 h, 168 h post-MATRIX, 48 h post-T",95.2%
same,% of Sows Ovulating,"gilts [2]; 200 mcg T at 120 h, 176 h post-MATRIX, 56 h post-T",95.2%
same,Interval from MATRIX Withdrawal to Ovulation,gilts [2]; [3],158.8
same,% of Sows Ovulating,"gilts [2]; 400 mcg T at 120 h, 128 h post-MATRIX, 8 h post-T",4.5%
same,% of Sows Ovulating,"gilts [2]; 400 mcg T at 120 h, 136 h post-MATRIX, 16 h post-T",9.1%
same,% of Sows Ovulating,"gilts [2]; 400 mcg T at 120 h, 144 h post-MATRIX, 24 h post-T",22.7%
same,% of Sows Ovulating,"gilts [2]; 400 mcg T at 120 h, 152 h post-MATRIX, 32 h post-T",36.4%
same,% of Sows Ovulating,"gilts [2]; 400 mcg T at 120 h, 160 h post-MATRIX, 40 h post-T",63.6%
same,% of Sows Ovulating,"gilts [2]; 400 mcg T at 120 h, 168 h post-MATRIX, 48 h post-T",100.0%
same,% of Sows Ovulating,"gilts [2]; 400 mcg T at 120 h, 176 h post-MATRIX, 56 h post-T",100.0%
same,Interval from MATRIX Withdrawal to Ovulation,gilts [2]; 400 mcg T at 120 h after MATRIX withdrawal,157.1
